Test results: PubChem BioAssay AID248 (DTP/NCI, 2004)
Values joined by “and” are separate entries in the source; they are usually repeats but may differ in a detail not shown here. Identical values can stand only once. Toxic doses and inconclusive results are not listed.

Test system: L1210 leukemia ip in BDF1 mice, survival T/C
Test: NCI In Vivo Anticancer Drug Screen. Data for tumor model L1210 Leukemia (intraperitoneal) in B6D2F1 (BDF1) mice
Settings: higher = longer survival
Summary of the method: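 Mice bearing the transplanted tumor received compound or vehicle. Survival of the treated group was divided by that of the vehicle-treated control group to give the ratio.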

With `O=c1[nH]c(=O)n([C@H]2CCCO2)cc1F` the T/C (endpoint: mean survival time, dose: 600.0 mg/kg/injection, schedule: Q04DX003 (ip), vehicle: other) was 116 % of control, the T/C (endpoint: mean survival time, dose: 600.0 mg/kg/injection, schedule: Q04DX003 (ip), vehicle: saline with Tween-80) was 124 % of control and the T/C (endpoint: mean survival time, dose: 640.0 mg/kg/injection, schedule: Q01DX009 (ip), vehicle: saline) was 104 % of control. For the same compound, the T/C (endpoint: mean survival time, dose: 700.0 mg/kg/injection, schedule: Q01DX001 (ip), vehicle: other) was 111 % of control, the T/C (endpoint: mean survival time, dose: 700.0 mg/kg/injection, schedule: Q01DX001 (sc), vehicle: other) was 111 % of control and the T/C (endpoint: mean survival time, dose: 781.0 mg/kg/injection, schedule: Q04DX002 (sc), vehicle: clinical formulation) was 100 % of control. The T/C (endpoint: mean survival time, dose: 977.0 mg/kg/injection, schedule: Q01DX001 (sc), vehicle: clinical formulation) was 107 % of control, the T/C (endpoint: mean survival time, dose: 1000.0 mg/kg/injection, schedule: Q01DX001 (ip), vehicle: other) was 96 % of control and the T/C (endpoint: mean survival time, dose: 1200.0 mg/kg/injection, schedule: Q04DX003 (ip), vehicle: other) was 93 % of control. For the same compound, the T/C (endpoint: mean survival time, dose: 1300.0 mg/kg/injection, schedule: Q01DX001 (ip), vehicle: Klucel (hydroxypropylcellulose) (HPC)) was 150 % of control, the T/C (endpoint: mean survival time, dose: 1428.0 mg/kg/injection, schedule: Q01DX001 (ip), vehicle: other) was 102 % of control and the T/C (endpoint: mean survival time, dose: 1428.0 mg/kg/injection, schedule: Q01DX001 (sc), vehicle: other) was 101 % of control. For the same compound, the T/C (endpoint: mean survival time, dose: 2300.0 mg/kg/injection, schedule: Q01DX001 (ip), vehicle: Klucel (hydroxypropylcellulose) (HPC)) was 115 % of control, the T/C (endpoint: median survival time, dose: 5.0 mg/kg/injection, schedule: Q03HX008 (ip), vehicle: other) was 95 % of control and the T/C (endpoint: median survival time, dose: 5.0 mg/kg/injection, schedule: Q03HX024 (ip), vehicle: other) was 95 % of control. The T/C (endpoint: median survival time, dose: 9.0 mg/kg/injection, schedule: Q03HX008 (ip), vehicle: other) was 96 % of control, the T/C (endpoint: median survival time, dose: 9.0 mg/kg/injection, schedule: Q03HX024 (ip), vehicle: other) was 102 % of control and the T/C (endpoint: median survival time, dose: 14.0 mg/kg/injection, schedule: Q01DX009 (ip), vehicle: other) was 100 % of control. The T/C (endpoint: median survival time, dose: 14.0 mg/kg/injection, schedule: Q03HX008 (ip), vehicle: other) was 94 % of control, the T/C (endpoint: median survival time, dose: 14.0 mg/kg/injection, schedule: Q03HX024 (ip), vehicle: other) was 96 % of control and the T/C (endpoint: median survival time, dose: 23.0 mg/kg/injection, schedule: Q01DX009 (ip), vehicle: other) was 103 % of control. For the same compound, the T/C (endpoint: median survival time, dose: 23.0 mg/kg/injection, schedule: Q03HX008 (ip), vehicle: other) was 93 % of control, the T/C (endpoint: median survival time, dose: 23.0 mg/kg/injection, schedule: Q03HX024 (ip), vehicle: other) was 103 % of control and the T/C (endpoint: median survival time, dose: 39.0 mg/kg/injection, schedule: Q04DX003 (ip), vehicle: other) was 111 % of control. The T/C (endpoint: median survival time, dose: 39.0 mg/kg/injection, schedule: Q04DX003 (oral), vehicle: other) was 100 % of control, the T/C (endpoint: median survival time, dose: 39.0 mg/kg/injection, schedule: Q04DX003 (sc), vehicle: other) was 106 % of control and the T/C (endpoint: median survival time, dose: 65.0 mg/kg/injection, schedule: Q01DX001 (ip), vehicle: other) was 100 % of control. For the same compound, the T/C (endpoint: median survival time, dose: 65.0 mg/kg/injection, schedule: Q01DX009 (ip), vehicle: other) was 104 % of control, the T/C (endpoint: median survival time, dose: 65.0 mg/kg/injection, schedule: Q04DX003 (ip), vehicle: other) was 95 % of control and the T/C (endpoint: median survival time, dose: 65.0 mg/kg/injection, schedule: Q04DX003 (oral), vehicle: other) was 103 % of control. The T/C (endpoint: median survival time, dose: 65.0 mg/kg/injection, schedule: Q04DX003 (sc), vehicle: other) was 101 % of control, the T/C (endpoint: median survival time, dose: 75.0 mg/kg/injection, schedule: Q04DX003 (ip), vehicle: water) was 95 % of control and the T/C (endpoint: median survival time, dose: 108.0 mg/kg/injection, schedule: Q01DX001 (ip), vehicle: other) was 122 % of control. The T/C (endpoint: median survival time, dose: 108.0 mg/kg/injection, schedule: Q04DX003 (ip), vehicle: other) was 100 % of control and 106 % of control, the T/C (endpoint: median survival time, dose: 108.0 mg/kg/injection, schedule: Q04DX003 (oral), vehicle: other) was 118 % of control and the T/C (endpoint: median survival time, dose: 108.0 mg/kg/injection, schedule: Q04DX003 (sc), vehicle: other) was 113 % of control. The T/C (endpoint: median survival time, dose: 150.0 mg/kg/injection, schedule: Q04DX003 (ip), vehicle: water) was 101 % of control, the T/C (endpoint: median survival time, dose: 180.0 mg/kg/injection, schedule: Q01DX001 (ip), vehicle: other) was 106 % of control and the T/C (endpoint: median survival time, dose: 180.0 mg/kg/injection, schedule: Q04DX003 (ip), vehicle: other) was 105 % of control and 112 % of control. For the same compound, the T/C (endpoint: median survival time, dose: 180.0 mg/kg/injection, schedule: Q04DX003 (sc), vehicle: other) was 108 % of control, the T/C (endpoint: median survival time, dose: 300.0 mg/kg/injection, schedule: Q04DX003 (oral), vehicle: other) was 118 % of control and the T/C (endpoint: median survival time, dose: 500.0 mg/kg/injection, schedule: Q04DX003 (oral), vehicle: other) was 164 % of control. The T/C (endpoint: median survival time, dose: 833.0 mg/kg/injection, schedule: Q04DX003 (ip), vehicle: other) was 118 % of control, the T/C (endpoint: median survival time, dose: 833.0 mg/kg/injection, schedule: Q04DX003 (sc), vehicle: other) was 160 % of control and the T/C (endpoint: median survival time, dose: 1200.0 mg/kg/injection, schedule: Q04DX003 (ip), vehicle: water) was 110 % of control. For the same compound, the T/C (endpoint: median survival time, dose: 1300.0 mg/kg/injection, schedule: Q01DX001 (ip), vehicle: other) was 104 % of control.
